Assay results as given in ChEMBL document CHEMBL4330111 (Bioorg Med Chem Lett, 2019).

Tests used:
Vero = experiment: Cytotoxicity against African green monkey Vero cells after 48 hrs by MTT assay; format: cell-based; details: chlorocebus sabaeus
[1] = test system: Mycobacterium tuberculosis; experiment: microbe, parasite or virus in culture; details: H37Rv, 144 h
Description: Antitubercular activity against Mycobacterium tuberculosis H37Rv after 6 days by alamar blue reagent based assay

Acinetobacter baumannii = experiment: Antibacterial activity against Acinetobacter baumannii ATCC 19606; format: functional; details: ATCC 19606 = CIP 70.34 = JCM 6841
[2] = Antibacterial activity against Enterobacter cloacae ATCC 13047; format: functional, Enterobacter cloacae subsp. cloacae
Enterococcus faecium = experiment: Antibacterial activity against Enterococcus faecium NCTC 7171; format: functional
Klebsiella pneumoniae = experiment: Antibacterial activity against Klebsiella pneumoniae BAA 2146; format: functional; details: ATCC BAA-2146
Pseudomonas aeruginosa = experiment: Antibacterial activity against Pseudomonas aeruginosa HER1018; format: functional
Staphylococcus aureus = experiment: Antibacterial activity against Staphylococcus aureus ATCC 43300; format: functional
[3] = Half life in mouse liver microsomes; format: ADME, Microsome
[4] = Kinetic solubility of the compound in pH 7.4 phosphate buffered saline; format: physicochemical; details: for solubility kinetic: phosphate buffered saline, read-out: Kinetic_solubility; for Kinetic_solubility: buffer
[5] = Cmax in CD-1 mouse at 25 mg/kg, po administered as single dose by LC-MS/MS analysis; format: ADME, organism-based; parameters: dose 25 mg/kg, route oral; details: in vivo
[6] = AUC (0 to 5 hrs) in CD-1 mouse at 25 mg/kg, po administered as single dose by LC-MS/MS analysis; format: ADME, organism-based; parameters: dose 25 mg/kg, route oral; details: in vivo
[7] = Intrinsic clearance in mouse liver microsomes assessed per mg protein; format: ADME, Microsome
[8] = Ratio of drug level in CD-1 mouse lungs to plasma at 25 mg/kg, po administered as single dose measured after 5 hrs by LC-MS/MS analysis; format: ADME, organism-based; details: lung/plasma

SMILES | CC50 (Vero) | MIC [1] | further results
O=C(NCc1ccccc1Cl)c1ccc([N+](=O)[O-])o1 | 11 µM | 6.2 µM | 
O=C(NCc1ccccc1)c1ccc([N+](=O)[O-])o1 | 13 µM | 0.39 µM | MIC (Acinetobacter baumannii): > 200 µM; MIC [2]: > 200 µM; MIC (Enterococcus faecium): > 200 µM; MIC (Klebsiella pneumoniae): > 200 µM; MIC (Pseudomonas aeruginosa): > 200 µM; MIC (Staphylococcus aureus): > 200 µM; t1/2 [3]: 28.5 min; solubility kinetic [4]: > 500 µM; Cmax ([5]; CD-1, mouse, read-out: Cmax): 1160 nM; AUC [6]: 547 ng·h/mL; Intrinsic clearance [7]: 24.3 µL/min
O=C(Nc1ccc(Cl)cc1)c1ccc([N+](=O)[O-])o1 | 1.5 µM | 0.78 µM | 
O=C(Nc1ccccc1)c1ccc([N+](=O)[O-])o1 | 6.7 µM | 3.1 µM | 
O=C(NCCc1ccccc1)c1ccc([N+](=O)[O-])o1 | 12 µM | 3.1 µM | 
CC(NC(=O)c1ccc([N+](=O)[O-])o1)c1ccccc1 (stereo unspecified) | 24 µM | 6.2 µM | 
CC(C)(NC(=O)c1ccc([N+](=O)[O-])o1)c1ccccc1 |  | 0.78 µM | t1/2 [3]: 74.5 min; Kinetic_solubility [4]: 388 µM; Cmax ([5]; CD-1, mouse, read-out: Cmax): 1620 nM; AUC [6]: 717 ng·h/mL; Intrinsic clearance [7]: 9.3 µL/min
O=C(NC(=O)c1ccc([N+](=O)[O-])o1)c1ccccc1 | 3 µM | 25 µM | 
O=C(Nc1cc2ccccc2o1)c1ccc([N+](=O)[O-])o1 | 40 µM | 0.2 µM | 
CC(C)(NC(=O)c1ccc([N+](=O)[O-])o1)c1ccc(Oc2ccc(Cl)cc2)cc1 | 67 µM | 0.39 µM | 
CC(C)(C)C(NC(=O)c1ccc([N+](=O)[O-])o1)c1ccccc1 (stereo unspecified) | 10 µM | 25 µM | 
O=C(NCc1ccc(Oc2ccc(Cl)cc2)cc1)c1ccc([N+](=O)[O-])o1 |  | 0.062 µM | 
O=C(NCCCc1ccc(Cl)cc1)c1ccc([N+](=O)[O-])o1 | 19 µM | 0.39 µM | 
O=C(NCc1cccc(Cl)c1)c1ccc([N+](=O)[O-])o1 | 5.5 µM | 0.78 µM | 
CC(C)(NC(=O)c1ccc([N+](=O)[O-])o1)c1ccc(COc2ccccc2OC(F)(F)F)cc1 | 13 µM | 0.098 µM | 
CC(C)(NC(=O)c1ccc([N+](=O)[O-])o1)c1ccc(COc2ccc(C(F)(F)F)cc2)cc1 | 7 µM | 0.39 µM | 
CC(C)C(NC(=O)c1ccc([N+](=O)[O-])o1)c1ccccc1 (stereo unspecified) | 22 µM | 6.2 µM | 
COc1ccc(OCc2ccc(C(C)(C)NC(=O)c3ccc([N+](=O)[O-])o3)cc2)cc1 | > 120 µM | 0.078 µM | MIC (Acinetobacter baumannii): > 120 µM; MIC [2]: > 120 µM; MIC (Enterococcus faecium): > 120 µM; MIC (Klebsiella pneumoniae): > 120 µM; MIC (Pseudomonas aeruginosa): > 120 µM; MIC (Staphylococcus aureus): > 120 µM; t1/2 [3]: 45 min; solubility kinetic [4]: < 0.06 µM; Cmax ([5]; mouse): 5 ng/mL; AUC [6]: 11 ng·h/mL; Intrinsic clearance [7]: 15.4 µL/min
COc1ccccc1OCc1ccc(C(C)(C)NC(=O)c2ccc([N+](=O)[O-])o2)cc1 |  | 0.019 µM | MIC (Acinetobacter baumannii): > 120 µM; MIC [2]: > 120 µM; MIC (Enterococcus faecium): > 120 µM; MIC (Klebsiella pneumoniae): > 120 µM; MIC (Pseudomonas aeruginosa): > 120 µM; MIC (Staphylococcus aureus): > 120 µM; t1/2 [3]: 11.6 min; Kinetic_solubility [4]: 0.182 µM; Cmax ([5]; CD-1, mouse, read-out: Cmax): 210 nM; AUC [6]: 210 ng·h/mL; Kp at 5 h [8]: 0.04 to 0.09; Intrinsic clearance [7]: 59.8 µL/min
CC(C)(NC(=O)c1ccc([N+](=O)[O-])o1)c1ccc(C#N)cc1 | 83 µM | > 10 µM | 
CC(C)(NC(=O)c1ccc([N+](=O)[O-])o1)c1ccc(F)cc1 | 42 µM | 0.78 µM | 
CC(C)(NC(=O)c1ccc([N+](=O)[O-])o1)c1ccc(C(F)(F)F)cc1 | > 150 µM | 0.78 µM | 

SMILES | CC50 (Vero) | MIC [1] | further results
CC(C)(NC(=O)c1ccc([N+](=O)[O-])o1)c1ccc(COc2ccc(OC(F)(F)F)cc2)cc1 | 6.7 µM | 0.39 µM | 
CC(C)(NC(=O)c1ccc([N+](=O)[O-])o1)c1ccc(Cl)cc1 |  | 0.15 µM | 
COc1ccc(C(C)(C)NC(=O)c2ccc([N+](=O)[O-])o2)cc1 |  | 0.078 µM | 
O=C(NCCCc1ccccc1)c1ccc([N+](=O)[O-])o1 | 11 µM | 0.78 µM | 
CC(C)(NC(=O)c1ccc([N+](=O)[O-])o1)c1ccc(COc2ccc(Cl)cc2)cc1 |  | 0.12 µM | Cmax ([5]; CD-1, mouse, read-out: Cmax): 22 nM; AUC [6]: 34 ng·h/mL
CN(C)c1ccc(C(C)(C)NC(=O)c2ccc([N+](=O)[O-])o2)cc1 | 79 µM | 0.2 µM | 
O=C(NCc1ccc(Cl)cc1)c1ccc([N+](=O)[O-])o1 |  | 0.098 µM | 
CC(C)(NC(=O)c1ccc([N+](=O)[O-])o1)c1ccc(OC(F)(F)F)cc1 | 70 µM | 0.2 µM | 
O=C(Nc1cc2ccccc2s1)c1ccc([N+](=O)[O-])o1 | 38 µM | 0.078 µM | t1/2 [3]: 1.87 min; Kinetic_solubility [4]: 5.61 µM; Intrinsic clearance [7]: 371 µL/min
CC(C)(NC(=O)c1ccc([N+](=O)[O-])o1)c1ccc(CN2CCOCC2)cc1 | 130 µM | > 10 µM | 
O=C(NCCc1ccc(Cl)cc1)c1ccc([N+](=O)[O-])o1 | 5.4 µM | 0.39 µM | 
O=C(NC1(c2ccccc2)CC1)c1ccc([N+](=O)[O-])o1 | 46 µM | 6.2 µM | 
O=C(Nc1ccc2ccccc2c1)c1ccc([N+](=O)[O-])o1 | > 150 µM | 0.0078 µM | t1/2 [3]: 2.13 min; Kinetic_solubility [4]: 1.5 µM; Intrinsic clearance [7]: 325 µL/min
O=C(NCc1ccc(COc2ccc(Cl)cc2)cc1)c1ccc([N+](=O)[O-])o1 |  | 0.039 µM | 
O=C(NC(c1ccccc1)C1CC1)c1ccc([N+](=O)[O-])o1 (stereo unspecified) | 22 µM | 12 µM | 
O=C(NCc1ccc(CN2CCOCC2)cc1)c1ccc([N+](=O)[O-])o1 | 18 µM | 1.2 µM | 
CC(C)(NC(=O)c1ccc([N+](=O)[O-])o1)c1ccc(-c2ccc(Cl)cc2)cc1 | > 140 µM | 25 µM | 
CC(C)(NC(=O)c1ccc([N+](=O)[O-])o1)c1ccc(COc2ccccc2C(F)(F)F)cc1 | 14 µM | 0.31 µM | 
O=C(NCc1ccc(-c2ccc(Cl)cc2)cc1)c1ccc([N+](=O)[O-])o1 | 4.4 µM | 0.12 µM | 
CC(C)(C)c1ccc(C(C)(C)NC(=O)c2ccc([N+](=O)[O-])o2)cc1 | > 150 µM | 0.39 µM | 
CC(C)(NC(=O)c1ccc([N+](=O)[O-])o1)c1ccc(COc2ccccc2Cl)cc1 | 30 µM | 0.31 µM | 
CO[C@H]1/C=C/O[C@@]2(C)Oc3c(C)c(O)c4c(O)c(c(/C=N/N5CCN(C)CC5)c(O)c4c3C2=O)NC(=O)/C(C)=C\C=C\[C@H](C)[C@H](O)[C@@H](C)[C@@H](O)[C@@H](C)[C@H](OC(C)=O)[C@@H]1C [RIFAMPIN] |  | 0.0125 to 0.05 µg/mL | 
